Assay results taken from patent US11926614B2, “1,2,4-triazole derivatives as tankyrase inhibitors” (priority 2018, dated 2024).
Like-named read-outs stand apart in the source and are kept apart here.

Tests used:
TNKS2 = TNKS2 (Homo sapiens (Human), UniProt Q9H2K2); assay: Biochemical IC50 TNKS2
From the text: (§1) XLfit (idbs) was used to determine the IC50-values in inhibition experiments. The following formula was chosen to fit the data points (Langmuir Binding Isotherm): fit=((A+(B*x))+4(C−B)*(1−exp((−1*D)*x)))/D)), res=(y−fit)

HEK293 = assay: Cellular IC50 HEK293; assay type: cell-based; settings: Homo sapiens
From the text: as §1

[1] = read-out: Biochemical IC50 TNKS2
[2] = HEK293, read-out: Cellular IC50 HEK293
[3] = HEK293, HEK293, read-out: Cellular IC50 HEK293

TNKS2, sequence (Q9H2K2 whole entry): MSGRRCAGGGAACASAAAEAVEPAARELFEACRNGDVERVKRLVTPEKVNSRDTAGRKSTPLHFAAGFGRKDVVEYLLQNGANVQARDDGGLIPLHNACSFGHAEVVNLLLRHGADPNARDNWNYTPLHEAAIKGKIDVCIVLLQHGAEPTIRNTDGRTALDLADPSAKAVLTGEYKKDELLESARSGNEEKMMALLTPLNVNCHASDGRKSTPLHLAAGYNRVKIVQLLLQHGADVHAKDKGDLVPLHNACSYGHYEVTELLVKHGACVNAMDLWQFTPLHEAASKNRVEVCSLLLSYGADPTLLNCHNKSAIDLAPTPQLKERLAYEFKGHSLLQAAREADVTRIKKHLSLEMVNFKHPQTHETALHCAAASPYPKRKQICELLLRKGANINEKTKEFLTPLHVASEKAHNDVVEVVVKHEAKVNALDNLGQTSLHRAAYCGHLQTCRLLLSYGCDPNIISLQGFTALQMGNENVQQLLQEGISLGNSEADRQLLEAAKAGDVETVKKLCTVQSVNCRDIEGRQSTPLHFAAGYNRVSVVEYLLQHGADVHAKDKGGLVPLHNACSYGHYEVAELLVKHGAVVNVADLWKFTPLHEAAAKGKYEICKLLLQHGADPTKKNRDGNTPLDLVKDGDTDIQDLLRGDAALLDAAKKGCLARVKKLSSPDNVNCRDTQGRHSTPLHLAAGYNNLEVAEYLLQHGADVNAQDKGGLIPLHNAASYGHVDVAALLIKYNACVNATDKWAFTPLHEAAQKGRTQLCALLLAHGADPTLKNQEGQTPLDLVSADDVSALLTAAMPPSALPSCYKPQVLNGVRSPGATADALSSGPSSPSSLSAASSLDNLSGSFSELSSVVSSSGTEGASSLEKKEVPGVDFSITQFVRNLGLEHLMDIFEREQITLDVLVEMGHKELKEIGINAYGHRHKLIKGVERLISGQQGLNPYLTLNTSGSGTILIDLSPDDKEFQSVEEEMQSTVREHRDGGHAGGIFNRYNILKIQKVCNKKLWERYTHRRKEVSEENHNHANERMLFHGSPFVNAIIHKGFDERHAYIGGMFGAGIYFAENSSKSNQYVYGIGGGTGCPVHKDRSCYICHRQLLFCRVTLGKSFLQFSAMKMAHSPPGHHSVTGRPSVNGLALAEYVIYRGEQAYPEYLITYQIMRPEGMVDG

## O=C(N[C@H]1C[C@H](c2nnc(-c3ccccn3)n2-c2ccccc2F)C1)c1cc(F)cc2nccnc12 [Example 194, 7-fluoro-N-((1S,3r)-3-(4-(2-fluorophenyl)-5-(pyridin-2-yl)-4H-1,2,4-triazol-3-yl)cyclobutyl)quinoxaline-5-carboxamide]
TNKS2; [1]
  IC50: 2 nM
HEK293; [2]
  IC50: 0.794 nM

## CCOc1ccc(-c2nnc([C@H]3C[C@H](NC(=O)c4cc5ccncc5[nH]4)C3)n2-c2ccccc2F)nc1 [Example 126, N-((1S,3r)-3-(5-(5-ethoxypyridin-2-yl)-4-(2-fluorophenyl)-4H-1,2,4-triazol-3-yl)cyclobutyl)-1H-pyrrolo[2,3-c]pyridine-2-carboxamide]
TNKS2; [1]
  IC50: 4.1 nM
HEK293; [3]
  IC50: 27 nM

## O=C(N[C@H]1C[C@H](c2nnc(-c3ccncn3)n2-c2ccccc2Cl)C1)c1ncccc1F [Example 18, N-((1S,3r)-3-(4-(2-chlorophenyl)-5-(pyrimidin-4-yl)-4H-1,2,4-triazol-3-yl)cyclobutyl)-3-fluoropicolinamide]
TNKS2; [1]
  IC50: 37 nM
HEK293; [3]
  IC50: 57 nM

## CCOc1ccc(-c2nnc([C@H]3C[C@H](NC(=O)c4ccnc5cccnc45)C3)n2-c2ccncc2)nc1 [Example 168, N-((1r,3r)-3-(5-(5-ethoxypyridin-2-yl)-4-(pyridin-4-yl)-4H-1,2,4-triazol-3-yl)cyclobutyl)-1,5-naphthyridine-4-carboxamide]
TNKS2; [1]
  IC50: 5.4 nM
HEK293; [2]
  IC50: 13 nM

## O=C(N[C@H]1C[C@H](c2nnc(-c3nccs3)n2-c2cccnc2)C1)c1cccc2cccnc12 [Example 114, N-((1r,3r)-3-(4-(pyridin-3-yl)-5-(thiazol-2-yl)-4H-1,2,4-triazol-3-yl)cyclobutyl)quinoline-8-carboxamide]
TNKS2; [1]
  IC50: 20 nM
HEK293; [3]
  IC50: 230 nM

## CCOc1ccc(-c2nnc([C@H]3C[C@H](NC(=O)c4cccc(C(C)(C)O)n4)C3)n2-c2ccccc2F)nc1 [Example 129, N-((1S,3r)-3-(5-(5-ethoxypyridin-2-yl)-4-(2-fluorophenyl)-4H-1,2,4-triazol-3-yl)cyclobutyl)-6-(2-hydroxypropan-2-yl) picolinamide]
TNKS2; [1]
  IC50: 210 nM
HEK293; [3]
  IC50: 649 nM

## Cc1cccc(-c2nnc([C@H]3C[C@H](NC(=O)c4cc(F)cc5nccnc45)C3)n2-c2ccccc2F)n1 [Example 202, 7-fluoro-N-((1S,3r)-3-(4-(2-fluorophenyl)-5-(6-methylpyridin-2-yl)-4H-1,2,4-triazol-3-yl)cyclobutyl)quinoxaline-5-carboxamide]
TNKS2; [1]
  IC50: 1.6 nM
HEK293; [2]
  IC50: 0.169 nM

## O=C(N[C@H]1C[C@H](c2nnc(-c3ccccc3)n2-c2ccccc2F)C1)c1ccc(F)cn1 [Example 175, 5-fluoro-N-((1S,3r)-3-(4-(2-fluorophenyl)-5-phenyl-4H-1,2,4-triazol-3-yl)cyclobutyl)picolinamide]
TNKS2; [1]
  IC50: 150 nM
HEK293; [3]
  IC50: 499 nM

## O=C(N[C@H]1C[C@H](c2nnc(-c3ccncn3)n2-c2ccccc2Cl)C1)c1cccc2cccnc12 [Example 4, N-((1S,3r)-3-(4-(2-chlorophenyl)-5-(pyrimidin-4-yl)-4H-1,2,4-triazol-3-yl)cyclobutyl)quinoline-8-carboxamide]
TNKS2; [1]
  IC50: 5.4 nM
HEK293; [3]
  IC50: 1 nM

## O=C(N[C@H]1C[C@H](c2nnc(-c3ccccc3)n2-c2ccccc2F)C1)c1ccc2cnccc2n1 [Example 178, N-((1S,3r)-3-(4-(2-fluorophenyl)-5-phenyl-4H-1,2,4-triazol-3-yl)cyclobutyl)-1,6-naphthyridine-2-carboxamide]
TNKS2; [1]
  IC50: 21 nM
HEK293; [3]
  IC50: 165 nM

## CS(=O)(=O)c1ccc(-c2nnc([C@H]3C[C@H](NC(=O)c4ccc(F)cn4)C3)n2-c2ccccc2F)nc1 [Example 107, 5-fluoro-N-((1S,3r)-3-(4-(2-fluorophenyl)-5-(5-(methylsulfonyl)pyridin-2-yl)-4H-1,2,4-triazol-3-yl)cyclobutyl) picolinamide]
TNKS2; [1]
  IC50: 5.7 nM
HEK293; [3]
  IC50: 32 nM

## CCOc1ccc(-c2nnc([C@H]3C[C@H](NC(=O)c4cccc5c4OCCO5)C3)n2-c2ccccc2F)nc1 [Example 116, N-((1S,3r)-3-(5-(5-ethoxypyridin-2-yl)-4-(2-fluorophenyl)-4H-1,2,4-triazol-3-yl)cyclobutyl)-2,3-dihydrobenzo[b][1,4]dioxine-5-carboxamide]
TNKS2; [1]
  IC50: 4.5 nM
HEK293; [3]
  IC50: 47 nM

## CCOc1ccc(-c2nnc([C@H]3C[C@H](NC(=O)c4ccc(C(C)O)cn4)C3)n2-c2ccccc2F)nc1 (mixture of isomers) [Example 100, rac-N-((1R,3r)-3-(5-(5-ethoxypyridin-2-yl)-4-(2-fluorophenyl)-4H-1,2,4-triazol-3-yl)cyclobutyl)-5-(1-hydroxyethyl)picolinamide]
TNKS2
  IC50: 8.2 nM
HEK293; [3]
  IC50: 48 nM

## CCOc1ccc(C(=O)N[C@H]2C[C@H](c3nnc(-c4nccs4)n3-c3ccccc3F)C2)nc1 [Example 30, 5-ethoxy-N-((1S,3r)-3-(4-(2-fluorophenyl)-5-(thiazol-2-yl)-4H-1,2,4-triazol-3-yl)cyclobutyl)picolinamide]
TNKS2; [1]
  IC50: 2 nM
HEK293; [3]
  IC50: 16 nM

## Cc1ccc(-n2c(-c3nccs3)nnc2[C@H]2C[C@H](NC(=O)c3ccnc4cccnc34)C2)s1 [Example 89, N-((1r,3r)-3-(4-(5-methylthiophen-2-yl)-5-(thiazol-2-yl)-4H-1,2,4-triazol-3-yl)cyclobutyl)-1,5-naphthyridine-4-carboxamide]
TNKS2; [1]
  IC50: 2.7 nM
HEK293; [3]
  IC50: 2.4 nM

## CCOc1ccc(-c2nnc([C@H]3C[C@H](NC(=O)c4ncccc4C)C3)n2-c2ccccc2F)nc1 [Example 102, N-((1S,3r)-3-(5-(5-ethoxypyridin-2-yl)-4-(2-fluorophenyl)-4H-1,2,4-triazol-3-yl)cyclobutyl)-3-methylpicolinamide]
TNKS2; [1]
  IC50: 190 nM
HEK293; [3]
  IC50: 919 nM

## O=C(N[C@H]1C[C@H](c2nnc(-c3nccs3)n2-c2ccccn2)C1)c1ccnc2cc(F)cnc12 [Example 39, 7-fluoro-N-((1r,3r)-3-(4-(pyridin-2-yl)-5-(thiazol-2-yl)-4H-1,2,4-triazol-3-yl)cyclobutyl)-1,5-naphthyridine-4-carboxamide]
TNKS2; [1]
  IC50: 28 nM
HEK293; [3]
  IC50: 16 nM

## CCOc1ccc(-c2nnc([C@H]3C[C@H](NC(=O)c4ccnc5cccnc45)C3)n2-c2cccnc2)nc1 [Example 162, N-((1r,3r)-3-(5-(5-ethoxypyridin-2-yl)-4-(pyridin-3-yl)-4H-1,2,4-triazol-3-yl)cyclobutyl)-1,5-naphthyridine-4-carboxamide]
TNKS2; [1]
  IC50: 4.5 nM
HEK293; [2]
  IC50: 16 nM

## CCOc1ccc(-c2nnc([C@H]3C[C@H](NC(=O)c4ccnc5cccnc45)C3)n2-c2ccccn2)nc1 [Example 124, N-((1r,3r)-3-(5-(5-ethoxypridin-2-yl)-4-(pyridin-2-yl)-4H-1,2,4-triazol-3-yl)cyclobutyl)-1,5-naphthyridine-4-carboxamide]
TNKS2; [1]
  IC50: 5.8 nM
HEK293; [2]
  IC50: 36 nM

## CCOc1ccc(-c2nnc([C@H]3C[C@H](NC(=O)c4cn(C)cn4)C3)n2-c2ccccc2F)nc1 [Example 117, N-((1S,3r)-3-(5-(5-ethoxypyridin-2-yl)-4-(2-fluorophenyl)-4H-1,2,4-triazol-3-yl)cyclobutyl)-1-methyl-1H-imidazole-4-carboxamide]
TNKS2; [1]
  IC50: 87 nM
HEK293; [3]
  IC50: 550 nM

## CCOc1ccc(-c2nnc([C@H]3C[C@H](NC(=O)c4cccc(C#N)n4)C3)n2-c2ccccc2F)nc1 [Example 53, 6-cyano-N-((1S,3r)-3-(5-(5-ethoxypyridin-2-yl)-4-(2-fluorophenyl)-4H-1,2,4-triazol-3-yl)cyclobutyl)picolinamide]
TNKS2; [1]
  IC50: 3.7 nM
HEK293; [3]
  IC50: 13 nM

## CCOc1ccc(-c2nnc([C@H]3C[C@H](NC(=O)c4ccnc5cc(F)cnc45)C3)n2-c2ccncc2)nc1 [Example 170, N-((1r,3r)-3-(5-(5-ethoxypyridin-2-yl)-4-(pyridin-4-yl)-4H-1,2,4-triazol-3-yl)cyclobutyl)-7-fluoro-1,5-naphthyridine-4-carboxamide]
TNKS2; [1]
  IC50: 2.9 nM
HEK293; [2]
  IC50: 6 nM

## CCOc1ccc(-c2nnc([C@H]3C[C@H](NC(=O)c4cc5sccc5[nH]4)C3)n2-c2ccccc2F)nc1 [Example 149, N-((1S,3r)-3-(5-(5-ethoxypyridin-2-yl)-4-(2-fluorophenyl)-4H-1,2,4-triazol-3-yl)cyclobutyl)-4H-thieno[3,2-b]pyrrole-5-carboxamide]
TNKS2; [1]
  IC50: 7.4 nM
HEK293; [3]
  IC50: 27 nM

## [2H]C([2H])([2H])C([2H])([2H])Oc1ccc(-c2nnc([C@H]3C[C@H](NC(=O)c4cccc5cc(F)cnc45)C3)n2-c2ccccc2F)nc1 [Example 141, N-((1S,3r)-3-(5-(5-(ethoxy-d5)pyridin-2-yl)-4-(2-fluorophenyl)-4H-1,2,4-triazol-3-yl)cyclobutyl)-3-fluoroquinoline-8-carboxamide]
TNKS2
  IC50: 2.9 nM
HEK293; [3]
  IC50: 1.1 nM

## CCOc1ccc(-c2nnc([C@H]3C[C@H](NC(=O)c4ccccn4)C3)n2-c2ccccc2Cl)nc1 [Example 134, N-((1S,3r)-3-(4-(2-chlorophenyl)-5-(5-ethoxypyridin-2-yl)-4H-1,2,4-triazol-3-yl)cyclobutyl)picolinamide]
TNKS2; [1]
  IC50: 3.7 nM
HEK293; [3]
  IC50: 4.5 nM

## O=C(N[C@H]1C[C@H](c2nnc(-c3nccs3)n2-c2ccccc2Cl)C1)c1ccccn1 [Example 42, N-((1S,3r)-3-(4-(2-chlorophenyl)-5-(thiazol-2-yl)-4H-1,2,4-triazol-3-yl)cyclobutyl)picolinamide]
TNKS2; [1]
  IC50: 5.9 nM
HEK293; [3]
  IC50: 20 nM

## CCOc1ccc(-c2nnc([C@H]3C[C@H](NC(=O)c4cc5cccnc5[nH]4)C3)n2-c2ccccc2F)nc1 [Example 152, N-((1S,3r)-3-(5-(5-ethoxypyridin-2-yl)-4-(2-fluorophenyl)-4H-1,2,4-triazol-3-yl)cyclobutyl)-1H-pyrrolo[2,3-b]pyridine-2-carboxamide]
TNKS2; [1]
  IC50: 19 nM
HEK293; [3]
  IC50: 144 nM

## CCOc1ccc(-c2nnc([C@H]3C[C@H](NC(=O)c4cc(C)nc5ncnn45)C3)n2-c2ccccc2F)nc1 [Example 158, N-((1S,3r)-3-(5-(5-ethoxypyridin-2-yl)-4-(2-fluorophenyl)-4H-1,2,4-triazol-3-yl)cyclobutyl)-5-methy-[1,2,4]triazolo[1,5-a]pyrimidine-7-carboxamide]
TNKS2; [1]
  IC50: 26 nM
HEK293; [3]
  IC50: 44 nM
